Data taken from publication PMC7822874, “Chemoprotective antimalarials identified through quantitative high-throughput screening of Plasmodium blood and liver stage parasites” (Scientific Reports, 2021).
Where two headings read alike, the source gives them in different places.

What was measured:
[1] = tested on: P. berghei-ANKA-GFP-LucCON liver stage parasites in HepG2-A16-CD81EGFP cells; assay: P. berghei liver stage Pb-Luc assay, Method 1 (UCSD, 1536-well); type: cell-based, Plasmodium berghei; conditions: P. berghei liver stage, averaged response (percent); for Average P. berghei 1 µM response (%): the header list (r8) defines it as the 1 µM dose
HepG2-A16-CD81EGFP cells = conditions: averaged response (percent)
in vitro = conditions: human, hepg2-a16-cd81egfp cells
[2] = tested on: P. falciparum Dd2 (clone B2) asexual blood stage parasites; assay: P. falciparum Dd2 asexual blood stage SYBR Green-I 72 h proliferation assay (qHTS); type: cell-based, Plasmodium falciparum; conditions: averaged P. falciparum asexual blood stage potency, log10 of AC50 in M
[3] = HepG2, the header list (r10) describes it as the 1 µM dose

Row | SMILES | Average P. berghei 3 µM response( %) [1] [%] | Average P. berghei 1 µM response (%) [1] [%] | Average HepG2 3 µM response( %) (HepG2-A16-CD81EGFP cells; HepG2, 3 µM dose) [%] | Average HepG2 3 µM response( %) (HepG2-A16-CD81EGFP cells; [3]) [%] | viability at 3 µM (in vitro; % viability) [%] | Pf ABS Log AC50 (M) [2] [M] | viability at 3 µM (in vitro) [%]
1 | Cc1cc(Nc2ccc(C)c(C)c2)n2nc(C)nc2n1 [MLS000116616] | 39 | 76 | 90 | 91 | 90.3 | -5.712 | –
2 | O=C(CCl)Nc1ccc(Oc2cnc3ccccc3n2)cc1 [MLS000327546] | 121 | 109 | 91 | 88 | 90.9 | -5.812 | –
3 | Cc1nn(-c2ccccc2)c(C)c1/C=N/Nc1nc2ccccc2[nH]1 [MLS000332160] | 43 | 83 | 87 | 92 | 87.3 | -6.012 | –
4 | O=C1C(Nc2ccccc2)=C/C(=N\S(=O)(=O)c2cccs2)c2ccccc21 [MLS000374486] | 34 | 65 | 86 | 101 | 86 | -6.462 | –
5 | COc1ccc(-[n+]2c(-c3ccc(Br)cc3)cn3c2CCc2ccccc2-3)cc1.[Br-] [MLS000391920] | 11 | 57 | 65 | 95 | 65.4 | -5.612 | –
6 | NS(=O)(=O)c1ccc(N/N=C/c2cn(-c3ccccc3)nc2-c2cccs2)cc1 [MLS000393371] | 24 | 69 | 94 | 91 | 94.1 | -6.762 | –
7 | Cc1cccc(-c2cc3nc(C)c(C)c(NCCCn4ccnc4)n3n2)c1 [MLS000529525] | 119 | 131 | 87 | 97 | 87.2 | -5.512 | –
8 | Cc1ccc(NC2=C(N3CCCCC3)C(=O)c3ccccc3C2=O)cc1 [MLS000532222] | 14 | 71 | 77 | 99 | 76.9 | -6.600 | –
9 | CCN(CC)CCN1C(=O)c2ccccc2NC1c1ccc(N(C)C)cc1 (stereo not drawn) [MLS000554078] | 84 | 102 | 96 | 103 | 95.7 | -5.612 | –
10 | CCCCc1c(C)c(C#N)c2nc3ccccc3n2c1Nc1c(C)n(C)n(-c2ccccc2)c1=O [MLS000555448] | 121 | 128 | 90 | 93 | 90.2 | -5.662 | –
11 | Cc1cc(O)c(CN2CCN(c3ccccc3)CC2)cc1C [MLS000569270] | 97 | 88 | 107 | 102 | – | -5.650 | 107
12 | COc1ccc(-c2c[n+](-c3ccccc3)c3n2CCS3)cc1 [MLS000587970] | 31 | 92 | 88 | 97 | 88.3 | -5.712 | –
13 | Cc1cc(Nc2nc3ccccc3nc2Cl)n(-c2ccccc2C)n1 [MLS000595322] | 93 | 114 | 98 | 93 | 98.3 | -6.062 | –
14 | COc1ccc(Nc2cc(C)c3ccc(O)cc3n2)cc1 [MLS000674789] | 118 | 103 | 96 | 88 | 96.2 | -6.187 | –
15 | Cc1cc(C)n(-c2nnc(N3CCN(c4ccccc4)CC3)nn2)n1 [MLS000695202] | 84 | 102 | 94 | 97 | 93.9 | -6.012 | –
16 | CCN(CC)Cc1cc2[nH]c3c4ccc(Cl)cc4ncc3c2cc1OC [MLS000757007] | 134 | 108 | 101 | 105 | 101 | -6.700 | –
17 | Cc1ccc(C)c(-n2c(-c3ccc(Br)cc3)csc2=NC(=O)c2ccccc2F)c1 [MLS000766129] | 44 | 91 | 89 | 97 | 89.1 | -5.187 | –
18 | O=C(Nc1ccc(Nc2ccncc2)cc1)c1ccc(Nc2ccnc3ccc([N+](=O)[O-])cc23)cc1 [MLS000766132] | 96 | 114 | 90 | 92 | 90.3 | -6.337 | –
19 | Cn1nc(C(F)(F)F)c(-c2ccc(F)cc2)c1NC(=O)Nc1ccc(F)cc1 [MLS000830769] | 90 | 148 | 99 | 95 | 99 | -5.962 | –
20 | NC1=NC[C@@H](Cc2ccc(O)cc2)N1CCCCC1CCCCC1 [MLS000888822] | 40 | 86 | 98 | 113 | 97.6 | -5.487 | –
21 | O=C(Nc1ccc(-c2csc(Nc3cccc(C(F)(F)F)c3)n2)cc1)c1cc([N+](=O)[O-])cc(C(F)(F)F)c1 [MLS000911524] | 73 | 100 | 101 | 101 | 101 | -5.387 | –
22 | N#Cc1c(N2CCN(c3ccc(F)cc3)CC2)nc(N)c2c(N)nc3c(c12)CC(=O)N3C1CC1 [MLS001003889] | 50 | 101 | 90 | 102 | 89.7 | -6.262 | –
23 | N=c1n(CCN2CCCCC2)c2ccccc2n1CC(=O)c1ccc(Cl)c(Cl)c1 [MLS001042209] | 89 | 92 | 87 | 89 | 87.4 | -5.750 | –
24 | COc1ccc(NC(=O)CN(C)C(=O)c2ccc(-c3ccccc3Cl)o2)cc1 [MLS001078689] | 111 | 109 | 105 | 99 | 105 | -5.750 | –
25 | O=C(Nc1ncccc1O)c1ccc(NS(=O)(=O)c2ccc3[nH]c(=O)[nH]c3c2)cc1 [MLS001138628] | 23 | 59 | 91 | 105 | 91 | -6.437 | –
26 | Nc1nonc1-n1nnc(C(=O)N/N=C/c2ccc(F)cc2)c1-c1ccc2c(c1)OCO2 [MLS001142639] | 143 | 115 | 95 | 92 | 95.3 | -6.637 | –
27 | Cc1cc(C)c(-c2csc(NC(=O)CCCc3nc4ccccc4c(=O)[nH]3)n2)c(C)c1 [MLS001156669] | 12 | 72 | 103 | 99 | 103 | -5.900 | –
28 | CCSc1nc2sc3c(c2c(=O)n1-c1ccccc1)CCN(C(C)C)C3 [MLS001173590] | 63 | 91 | 93 | 100 | 92.6 | -6.000 | –
29 | C=C(C)CSc1nc2sc3c(c2c(=O)n1-c1ccc(C)cc1)CCN(C)C3 [MLS001173676] | 59 | 87 | 87 | 97 | 86.9 | -5.800 | –
30 | C/C(=N\Nc1ncnc2sc(C)c(C)c12)c1ccccn1 [MLS001176565] | 5.49 | 9 | 40 | 52 | 40.2 | -5.912 | –
